Literature values as cited in patent publication US20070281345A1, “Enzymatic Method of Making Aldehydes from Fatty Acids” (Archer-Daniels-Midland Company, priority 2006, published 2007).

Details: AOCS Method Tg1a-67 (determined) or Cd1c-85 (calculated)

Row | Compound | iodine value
1 | CCCCCCCC/C=C\CCCCCCCC(=O)O [oleic acid] | 89
2 | CCC=CCC=CCC=CCC=CCC=CCCCC(=O)O [eicosapentaenoic acid, 5,8,11,14,17-eicosapentaenoic acid] | greater than the iodine value of linoleic acid
3 | CCCCC/C=C\C/C=C\CCCCCCCC(=O)O [linoleic acid] | 173
4 | CCCCC/C=C\C/C=C\C/C=C\C/C=C\CCCC(=O)O [arachidonic acid] | greater than the iodine value of linoleic acid
5 | CCC=CCC=CCC=CCC=CCC=CCC=CCCC(=O)O [docosahexaenoic acid, 4,7,10,13,16,19-docosahexaenoic acid] | greater than the iodine value of linoleic acid
